Laboratory results as given in patent US11357749B2, “Methods for treating neutropenia” (Enzychem Lifesciences Corporation, priority 2014, dated 2022).

Key:
p38 MAPK = p38 MAPK phosphorylation, western blot in IgE-antigen stimulated RBL-2H3 cells; assay type: cell-based; conditions: PLAG pre-incubated RBL-2H3 cells, IgE-antigen complex stimulation
Experimental: Dephosphorylation of p38 MAPK and ERK1/2 in PLAG-treated RBL-2H3 cells is determined by western blot analysis using anti-phospho-p38 and anti-phospho-ERK1/2 respectively. To activate the p38 and ERK1/2 in RBL-2H3 cells, the cells are sensitized with 50 ng/mL of anti-DNP-IgE overnight. After washing with PBS three times, 20 ng/ml of DNP-HSA is added. Each cell lysate for western blot is prepared in the PLAG-treated RBL-2H3 cells in a dose-dependent manner and incubated for the same time (15 min). β-actin is used as internal controls. ERK1/2 and p38 phosphorylation start immediately after IgE-antigen complex stimulation and remain sufficiently activated for 5 min.

STAT1 = experiment: IFN-γ induced STAT1 phosphorylation, western blot in U937 cells; assay type: cell-based; conditions: PLAG 0.01 to 10 μg/ml, 10 ng IFN-γ, 15 min
Experimental: Dephosphorylation of STAT6 is examined using anti-phosphorylated STAT6 in U937, A549, and Jurkat cell lysates treated with PLAG concentration from 0.01 to 10 μg/ml. Phosphorylation of STAT6 is induced by treatment with 10 ng/ml of IL-4. Dephosphorylation of STAT1 is examined in the U937 cell lysate treated with PLAG (0.01 to 10 μg/ml). Phosphorylation of STAT1 is induced by 10 ng of IFN-γ treatment. Dephosphorylation of STAT1 and STAT6 is examined at 15 min after stimulation with IFN-γ and IL-4 respectively, in the PLAG pretreated cells. […] The transcriptional activity of STAT6 is decreased by the dephosphorylation of STAT6. […] No effect of PLAG on STAT1 phosphorylation is observed.

[1] = tested on: neutrophils, lymphocytes and eosinophils; experiment: Neutrophil, lymphocyte and eosinophil ratio after Tamoxifen and PLAG in mice; assay type: in vivo; conditions: Tam 100 mg/kg + PLAG 5 mg/kg, after 15 hours
Experimental: 100 mg/kg of anticancer agent Tamoxifen (Tam) is used to induce reduction of neutrophils, followed by treated with 5 mg/kg of PLAG and the ratios of neutrophil (NEU), lymphocyte (LYM), and eosinophil (EOS) are measured after 15 hours as in the previous experiment.

neutrophils = experiment: Migration of neutrophils in LPS-injected mice (blood and lymph counts); assay type: in vivo
Experimental: Mice are injected with bacterial lipopolysaccharide (LPS) to provoke an inflammatory response, in the presence or absence of PLAG: […]

Complement 3 = experiment: Clinical study in healthy subjects: Complement 3 in blood; assay type: in vivo, human
Experimental: A clinical study is conducted in Gwandong University MyungJi Hospital Clinical Study Center in Republic of Korea with 27 healthy patients to study immune-modulating effect of PLAG. Volunteers are tested for 30 days in vivo as oral administer (500 mg of PLAG per day) under a legitimate clinical approval. Complement 3 is counted using C3 assay kit. The analysis result is shown in FIG. 7, and change of immunoactivity by the administration of PLAG in healthy subjects is shown in Table 8 (effect of PLAG supplementation on immune function of peripheral blood after 4-wk intervention). As shown in FIG. 7 and Table 8, the majority of those who consume PLAG for a month (twenty-six (26) subjects out of 27 patients) show decreased complement 3 (C3), while the control group, who are treated with soybean oil, show both increase and decrease of C3.

CCCCC/C=C\C/C=C\CCCCCCCC(=O)OC(COC(C)=O)COC(=O)CCCCCCCCCCCCCCC (racemic) [PLAG, 1-palmitoyl-2-linoleoyl-3-acetylglycerol]
p38 phosphorylation (p38 MAPK): down-regulated
STAT1 phosphorylation (STAT1): No effect
Eosinophil Ratio [1]: 15.1 ± 0.3%
Lymphocyte ratio [1]: 45.7 ± 4.1%
Neutrophil Ratio [1]: 35.2 ± 2.4%
Neutrophil count in blood (neutrophils; LPS + PLAG): 3.41 k/μl
Neutrophil count in lymph (neutrophils; LPS + PLAG): 1.48 k/μl
migration of neutrophils to the lymph node (neutrophils; LPS + PLAG vs LPS only): inhibits migration
subjects showing decreased complement 3 (C3) (Complement 3; 500 mg PLAG per day oral for a month): 26 subjects out of 27
decrease of average concentration of C3 in blood (Complement 3; after administration of PLAG 500 mg per day, 30 days): about 10 mg/dL
C3, After (Complement 3; healthy subjects n = 27, 500 mg PLAG per day oral, after 4-wk intervention): 99.7 ± 12.4 mg/dL
C3, Before (Complement 3; healthy subjects n = 27, before PLAG supplementation): 109.5 ± 13.0 mg/dL
